Assays:
IEX-1-deficient mice = details: Ramsey et al., Platelets 2015; cited from earlier work
5-FU-treated mice = assay: platelet production in vivo in 5-FU-induced thrombocytopenia with mito-drugs; parameters: species or system B6 mice; details: 100 mg/kg gavage twice a day for 4 days
Protocol: FIG. 10 provides a graph showing the enhancement of plt production by mito-drugs in vivo. All mice were treated with two doses of 5-FU (FU), along with an indicated mito-drug or LLLT for 4 consecutive days (red arrow). *, p<0.05, **, p<0.01 and ***, p<0.001 in the presence or absence of indicated drugs or LLLT. n=10 in each group.
The 5-FU-treated mice were gavaged with BEZ or Res at 100 mg/kg body weight or vehicle control twice a day for 4 consecutive days starting at 6 hr after the first 5-FU injection. For comparison, 5-FU-treated mice were also administered LLL daily for 4 consecutive days in parallel. […] Whether or not a higher dose or dosage of BEZ can further increase the efficacy remains to be investigated.

Mouse MKs = assay: platelet production ex vivo from MKs in the presence of mito-drugs; assay type: cell-based; details: for platelet generation from MKs ex vivo: Bezafibrate 400 μM, Resveratrol 50 μM, SRT1720 0.1 μM, AICAR 500 μM, MK medium for 3 days, compared to controls
Protocol: FIG. 9 provides a graph showing enhancement of platelet production ex vivo by mito-drugs. C. control; Bez, Bezafibrate (400 μM); Res, Resveratrol (50 μM); SRT1720, 0.1 μM; Aicar, AICAR (500 μM); LLL, 810 nm 3 J/cm^2. Mouse MKs were differentiated in MK medium for 3 days in the presence of an indicated drug or after LLLT. **, p<0.01 and ***, p<0.001 compared to controls. n=6.
Some mito-drugs tested enhance platelet production from MKs ex vivo. […] The concentration used for individual drugs is the one commonly used for inducing PGC-1α expression in other cell cultures except for SRT1720 that was used at a 100× lower concentration. […] Perhaps, the concentration of each drug can be further optimized for enhancing platelet production.

MKs [1] = assay: platelet production from LLL-treated MKs with Oligomycin A in MK medium; assay type: cell-based, mouse; details: 5 μg/ml in MK medium
Protocol: (§1) FIGS. 1A-1H provide graphs and images showing LLL promotes MK maturation and platelet production. (A) Illustration of time lines of ex vivo platelet differentiation from MKs. CD41+ FSC^high MKs were sorted from BM cells, treated with or without LLL, and cultured in MK medium. MKs were collected 1 hr later for cellular ATP measurement (B), 1 day for studying proplatelet formation (C-F) or 3 days for counting platelets (G). (B) ATP was measured in 5×10^4 MKs treated with LLL at various energy densities. (C) Sizes of CD41+ MKs were analyzed by flow cytometric analysis of forward/side scatter (FSC) before and after 24 hr differentiation. (D) Representative transmission electron micrographs of MKs from at least 6 samples per group with 30 cells in each group. N, nuclear; IMS, invaginated membrane system. […] (F) The numbers indicated percentages of small or large PPF-MKs of at least 500 MKs analyzed per sample and 6 samples per group. ###P<0.001, large PPF-MKs and **P<0.01, total PPF-MKs compared between the two groups. […]
(§2) FIGS. 2A-2H provide graphs and images showing the thrombopoietic effect of LLL is ATP-dependent. (A) Correlations between MK ATP levels at 1 hr post-LLL and platelets measured in 3 days later are analyzed by coefficient of determination. […] Mitochondrial membrane potential of CD41+ FSC^high MKs was determined by flow cytometric analysis of red J-aggregate fluorescence at 590 nm. […]

MKs [2] = assay: ATP measurement in MKs with Oligomycin A; assay type: cell-based, mouse; details: 5 μg/ml
Protocol: as §1, §2

PPF-MKs = details: Richardson et al., Blood 2005; cited from earlier work
[3] = tested on: circulating platelet counts; assay: circulating platelet counts in mice receiving 5-FU; assay type: in vivo; details: on day 4; dose of 150 mg/kg body weight
Protocol: FIGS. 6A-6D provide graphs showing that LLL alleviates thrombocytopenia induced by anti-CD41 antibody or 5-FU in mice. (A and B) Mice were administered daily with 0.1 mg/kg anti-CD41 antibody over 7 days. LLL was given daily from day 3 to day 7. […] LLL was given daily for 3 consecutive days starting at 4 hr after 5-FU injection. Platelet counts (A and C) were measured daily at 6 hr post-LLL and a tail bleeding time (B and D) was examined on day 5 (B) or day 4 (D). n=6; ns, no significance; and *P<0.05, **P<0.01, ***P<0.001 compared between indicated groups.
We further extended our investigation to ITP precluding that LLL-mediated thrombopoiesis was specific for thrombocytopenia induced by γ-irradiation. We depleted platelets by administering anti-CD41 antibody daily at 0.1 mg/kg body weight from day 0 to day 7 to create a commonly used animal model of ITP. Katsman et al., Transfusion 50, 1285-1294 (2010). […] LLL lifted the nadir effectively after only two treatments (day 4) and greatly accelerated a recovery of platelet counts in the presence of anti-CD41 antibody, although platelet counts were rebound in all the mice eventually owing to compensatory thrombopoiesis (FIG. 6A). Bleeding time was also normalized on day 5 in LLL-treated animals (FIG. 6B). […]

In the case of `COC1=C(OC)C(=O)C(CCCCCCCCCC[P+](c2ccccc2)(c2ccccc2)c2ccccc2)=C(C)C1=O` [mitoquinone], the “thrombocytopenia in IEX-1-deficient mice” value (IEX-1-deficient mice) is given as “completely reverse thrombocytopenia”.

With `Oc1ccc(C=Cc2cc(O)cc(O)c2)cc1` [resveratrol] the “efficacy compared to BEZ or LLLT” value (5-FU-treated mice; 5-FU-treated mice) was “relatively weak”, the “nadir of platelet counts” value (5-FU-treated mice; 5-FU-treated mice) was “lifted the nadir significantly” and the platelet biogenesis (5-FU-treated mice; 5-FU-treated mice) was “augmented platelet biogenesis”. The “platelet generation from MKs ex vivo” value (Mouse MKs) was “enhance platelet generation from MKs ex vivo significantly”.

For `CC(C)(Oc1ccc(CCNC(=O)c2ccc(Cl)cc2)cc1)C(=O)O` [BEZ, bezafibrate], the platelet counts sustained (5-FU-treated mice; 5-FU 120 and 90 mg/kg on days 1 and 4) was ≥ 70 % the normal value.

In the case of `CC[C@@H]1/C=C/C=C/C[C@H](C)[C@H](O)[C@](C)(O)C(=O)[C@H](C)[C@@H](O)[C@H](C)C(=O)[C@H](C)[C@@H](O)[C@H](C)/C=C/C(=O)O[C@H]2[C@@H](C)[C@@H](CC1)O[C@@]1(CC[C@@H](C)[C@@H](C[C@H](C)O)O1)[C@@H]2C` [Oligomycin A], the “LLL-mediated enhancement of platelet generation” value (MKs [1]) is reported as “severely blunted” and the “ATP synthesis in the cells” value (MKs [2]) is reported as “reduces ATP synthesis”.

For `Nc1ncnc2c1ncn2[C@@H]1O[C@H](COP(=O)(O)OP(=O)(O)OP(=O)(O)O)[C@@H](O)[C@H]1O` [ATP], the proplatelet elongation (PPF-MKs) is listed as “activated proplatelet elongation” and the proplatelet growth (PPF-MKs) is listed as “significantly enhanced proplatelet growth”.

In the case of `O=c1[nH]cc(F)c(=O)[nH]1` [5-FU, 5-fluorouracil], the “diminished circulating platelet counts” value [3] is reported as 43%.

With `O=C(Nc1ccccc1-c1cn2c(CN3CCNCC3)csc2n1)c1cnc2ccccc2n1` [SRT1720] the “platelet generation from MKs ex vivo” value (Mouse MKs) was “enhance platelet generation from MKs ex vivo significantly” and the platelet production (Mouse MKs; higher concentration of SRT1720 (than 0.1 μM)) was “did not increase platelet production significantly”.

Source: US10918655B2, “Stimulating platelet generation by activating mitochondrial biogenesis” (THE GENERAL HOSPITAL CORPORATION, priority 2016, dated 2021)
